Assay [1] deals with 5-HT1B receptor (Homo sapiens, UniProt P28222). As to conditions: selective 5-HT1B receptor antagonist; British Journal of Pharmacology (2003) 138, 71-80; cited from earlier work.
Assay [2] addresses rb 5-HT1B receptors (Oryctolagus cuniculus, UniProt P49144). As to conditions: British Journal of Pharmacology (1997) 120, 153; cited from earlier work.
The test system of assay [3] is Lrp5−/− mice. Briefly: pCPA treatment of WT and Lrp5−/− mice: bone histomorphometry, serum serotonin, gut TPH1 and brain TPH2 expression. The class given is in vivo. Particulars: 300 mg/kg pCPA intraperitoneally three times per week, from 3 weeks to 12 weeks of age. Here is the method:
Consistent with the conclusion that the increase in serum serotonin level is responsible fully or partly for the bone phenotype of the Lrp5−/− mice is the discovery that pCPA, a serotonin synthesis inhibitor (Eldridge et al., 1981, Ann. Rev. Physiol. 43:121-135), prevented the appearance of the Lrp5−/− bone phenotype by decreasing serotonin production. WT and Lrp5−/− mice were treated with 300 mg/kg pCPA intraperitoneally three times per week, from 3 weeks to 12 weeks of age (FIG. 7A) and the changes in serum serotonin levels, TPH1 expression in gut and TPH2 expression in brain stem were analyzed. Bone histomorphometry was also performed. […] This rescue of the Lrp5 −/− phenotype was achieved by normalization of the gut TPH1 mRNA and of serum serotonin levels (FIGS. 7C and 7D).
Generation of Lrp5−/− (Kato et al., 2002, J. Cell Biol. 157:303-314) β-cateninfloxed/floxed (Glass et al., 2005, Dev. Cell 8:751-764), α1(I)collagen-cre transgenic (Dacquin et al., 2002, Dev. Dyn. 224:245-251) and Htt−/− (Ansorge et al., 2008, J. Neurosci. 28:199-207) mice were as described previously. Lrp5+/−;Htt+/− double heterozygous mice were generated by crossing Lrp5+/− and Htt+/− mice. Three week-old Wt or Lrp5−/− mice were administered pCPA on alternate days for 9 weeks by i.p. All animal protocols were approved by the Animal Care Committees of Columbia University.
Static histomorphometry measurements were performed as previously described in accordance with standard nomenclature, using the Osteomeasure Analysis System (Osteometrics, Inc) (Ducy et al., 2000, Cell 100:197-207). Four to 9 animals were assigned per group.
Serotonin serum levels were quantified using immunoassay kits from Fitzgerald (Serotonin) and serotonin levels in the different regions of the brain were quantified by HPLC method as described previously (Mann et al., 1992, Arch. Gen. Psychiatry 49:442-446).

Assay [4] has as its system CREB. Briefly: Western blot analysis of CREB phosphorylation in primary osteoblasts treated with serotonin. The class given is cell-based, mouse. As to conditions: serotonin 50 to 100 μM. How it is done: (§1) Decreased expression of Cyclin D1 is a major feature of both Lrp5 deficiency and serotonin treatment of osteoblasts (FIGS. 1 and 8). One transcription factor that is known to modulate the expression of cyclin genes and is expressed in osteoblasts is CREB (Fu et al., 2005, Cell 122:803-815). Therefore, whether serotonin could decrease CREB activity in these cells was tested. […] Furthermore, a CREB binding site in the Cyclin D1 mouse promoter was identified and it was shown using ChIP assays that serotonin decreased binding of CREB to this promoter (FIG. 9B). These two observations raise the hypothesis that CREB could be mediating serotonin action on osteoblasts.
Osteoblasts were treated in serum-free medium with vehicle or Serotonin (50 to 100 μM, Sigma) for 24 hr. Lysates from primary osteoblasts or crushed frozen bones were prepared in RIPA buffer in the presence of protease and phosphatase inhibitors. Twenty to 60 μg of proteins were separated by SDS-PAGE in reducing conditions and transferred on nitrocellulose membrane using standard protocols. Membranes were incubated with primary antibodies including total or anti-Phospho CREB (Cell Signaling Technology).

Assay [5] has as its system primary osteoblasts. Briefly: Real-time PCR analysis of cyclin and osteoblast-specific gene expression in primary osteoblasts treated with serotonin. Format: cell-based, mouse. As to conditions: serotonin 50 to 100 μM, 24 hr, vs vehicle. How it is done: To test whether serotonin regulates the expression of cyclins in osteoblasts, a real-time PCR analysis of cyclin expression in primary osteoblasts treated with serotonin or vehicle was performed. […] In contrast, expression of Runx2, Osteocalcin and Type I collagen was not modified (FIG. 8B).
Calvaria osteoblasts were extracted by triple collagenase/trypsine digestion from 4 day-old CD1 pups and differentiated with ascorbic acid as previously described (Ducy et al., 2000, Cell 100:197-207).
(§2) Osteoblasts were treated in serum-free medium with vehicle or Serotonin (50 to 100 μM, Sigma) for 24 hr. Total RNA were extracted with Trizol (Invitrogen). cDNA were generated using the ABI Reverse transcriptase system and random hexanucleotide primers. Real-time PCR was performed using superarray primers on a Stratagene real time PCR cycler and Actin expression was used as endogenous control. Chromatin immunoprecipitation assays (ChIP) were performed by standard procedures using primary osteoblasts. Microarray analysis was performed as described previously (Glass et al., 2005, Dev. Cell 8:751-764).

Assay [6] deals with Cyclin D1 mouse promoter. Briefly: ChIP analysis of CREB binding to the Cyclin D1 promoter in primary osteoblasts treated with serotonin. The class given is cell-based. How it is done: as §1, §2

These results are taken from patent US8815883B2, “Compounds and methods for inhibiting serotonin synthesis” (The Trustees of Columbia Unviersity in the City of New York, priority 2009, dated 2014).

“Also recorded” adds a separate entry of the source. Counter-ions that a name gives are not always drawn.

Chain of rb 5-HT1B receptors (P49144 whole entry): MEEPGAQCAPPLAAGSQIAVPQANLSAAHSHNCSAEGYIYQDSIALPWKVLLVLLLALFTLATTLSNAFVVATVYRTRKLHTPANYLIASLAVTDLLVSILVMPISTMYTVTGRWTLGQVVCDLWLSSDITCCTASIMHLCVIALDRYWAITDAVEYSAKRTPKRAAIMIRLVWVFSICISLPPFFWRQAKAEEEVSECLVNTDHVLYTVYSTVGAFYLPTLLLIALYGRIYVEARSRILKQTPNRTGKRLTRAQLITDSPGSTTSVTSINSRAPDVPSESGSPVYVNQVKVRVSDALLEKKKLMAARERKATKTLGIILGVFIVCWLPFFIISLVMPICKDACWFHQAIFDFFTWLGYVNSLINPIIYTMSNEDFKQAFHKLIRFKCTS
Chain of 5-HT1B receptor (P28222 whole entry): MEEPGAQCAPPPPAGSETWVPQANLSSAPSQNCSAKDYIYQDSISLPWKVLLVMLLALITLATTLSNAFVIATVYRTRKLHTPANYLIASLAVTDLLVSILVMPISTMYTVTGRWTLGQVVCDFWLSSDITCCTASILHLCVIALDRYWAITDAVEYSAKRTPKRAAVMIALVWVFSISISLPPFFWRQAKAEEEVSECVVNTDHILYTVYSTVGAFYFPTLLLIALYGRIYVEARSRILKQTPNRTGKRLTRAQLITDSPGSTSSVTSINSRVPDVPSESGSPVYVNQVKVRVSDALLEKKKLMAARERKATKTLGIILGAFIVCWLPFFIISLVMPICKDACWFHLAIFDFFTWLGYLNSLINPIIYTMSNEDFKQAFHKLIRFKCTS

With `CN(C)CCCc1cc(C(=O)Nc2ccc(-c3ccncc3)cc2)ccc1O` [GR 55562, 3-[3-(dimethylamino)propyl]-4-hydroxy-N-[4-(4-pyridinyl)phenyl]benzamide dihydrochloride], the Kb in assay [1] was roughly 100 nM.

For `O=C(c1ccc(F)cc1)C1CCN(CCn2c(=O)[nH]c3ccccc3c2=O)CC1` [ketanserin], the “mode of antagonism at rb 5-HT1B receptors” value in assay [2] is recorded as “silent, competitive antagonists”.

Regarding `CSc1ccc2c(c1)C(N1CCN(C)CC1)Cc1ccccc1S2` (stereo not drawn) [methiothepin], the “mode of antagonism at rb 5-HT1B receptors” value in assay [2] was “silent, competitive antagonists”.

For the compound `NC(Cc1ccc(Cl)cc1)C(=O)O` (stereo not drawn) [pCPA, para-chlorophenylalanine], the “gut TPH1 mRNA” value in assay [3] (Lrp5−/− mice) was “normalization”. Besides, in assay [3] (Lrp5−/− mice, 300 mg/kg), the “bone abnormalities (bone histomorphometry)” value is listed as “corrects bone abnormalities; also recorded: corrects their low bone phenotype; also recorded: corrected the bone abnormalities” and the serum serotonin levels result is on record as “normalizes; also recorded: normalization”. Moreover, the bone mass result in assay [3] (WT mice) is given as “without overtly affecting bone mass”. In addition, the “Brain TPH2 mRNA levels” value in assay [3] (treated mice) is “not affected”.

Consider `NCCc1c[nH]c2ccc(O)cc12` [serotonin, 5-hydroxytryptamine], for which the CREB phosphorylation result in assay [4] is reported as “significantly decreased”. For the same compound, in assay [5], the “expression of Cyclin D1” value is “decreased”, the “expression of Cyclin D2” value was “decreased”, the “expression of Osteocalcin” value was “not modified” and the “expression of Runx2” value is listed as “not modified”. Moreover, the “expression of Type I collagen” value in assay [5] was “not modified”. For the same compound, the “binding of CREB to the Cyclin D1 promoter (ChIP)” value in assay [6] is on record as “decreased”.
